Measurements: patent US20130072430A1, “METHODS FOR TREATMENT OR PROPHYLAXIS OF KIDNEY OR LIVER DYSFUNCTION” (NPS PHARMACEUTICALS, INC., priority 2010, published 2013)

Tested on: Human patients with short bowel syndrome
Experiment: Example 1: kidney diagnostic biomarkers (urea nitrogen, creatinine, GFR) in short bowel syndrome patients, every four weeks for 24 weeks
Type: in vivo
Set-up: CREATININE (RATE BLANKED) Change from Baseline, Median / GFR, Median / GFR Change from Baseline, Median / UREA NITROGEN, Median / UREA NITROGEN Change from Baseline, Median: unit not given here
Details: for CREATININE (RATE BLANKED), Median: unit assumed
Experimental: Human patients with short bowel syndrome were divided into three groups: a control group (16 total individuals) to receive placebo, an experimental group (35 total individuals) to receive teduglutide at 0.05 mg/kg/day throughout the study, and an experimental group (32 total individuals) to receive teduglutide at 0.1 mg/kg/day throughout the study. Patients were treated by subcutaneous injection of placebo or the appropriate dose of teduglutide. As individuals with short bowel syndrome are likely to experience associated liver and kidney disease, known biomarkers of liver and kidney function were monitored every four weeks, for 24 weeks. The liver biomarkers tested included total bilirubin, ALT and AST and ALP. The kidney biomarkers tested included urea nitrogen, creatinine and GFR. Before administration of placebo or teduglutide, diagnostic biomarker levels were tested to establish a baseline for each individual.
To visualize the effect of GLP-2 on the levels of the diagnostic biomarkers, the average change from baseline was calculated for the placebo and teduglutide treated groups for each visit after a baseline was established. The average change from baseline of each group is depicted in FIGS. […]. The numerical figures for each diaanostic biomarker at each time point are depicted in Table 1.
The raw data for this sorting is reproduced in Table 2 below.

## CC[C@H](C)[C@H](NC(=O)[C@H](Cc1ccccc1)NC(=O)[C@H](CC(=O)O)NC(=O)[C@H](CCCNC(=N)N)NC(=O)[C@H](C)NC(=O)[C@H](C)NC(=O)[C@H](CC(C)C)NC(=O)[C@H](CC(N)=O)NC(=O)[C@H](CC(=O)O)NC(=O)[C@H](CC(C)C)NC(=O)[C@@H](NC(=O)[C@@H](NC(=O)[C@H](CC(N)=O)NC(=O)[C@H](CCSC)NC(=O)[C@H](CCC(=O)O)NC(=O)[C@H](CC(=O)O)NC(=O)[C@H](CO)NC(=O)[C@H](Cc1ccccc1)NC(=O)[C@H](CO)NC(=O)CNC(=O)[C@H](CC(=O)O)NC(=O)CNC(=O)[C@@H](N)Cc1c[nH]cn1)[C@@H](C)O)[C@@H](C)CC)C(=O)N[C@@H](CC(N)=O)C(=O)N[C@@H](Cc1c[nH]c2ccccc12)C(=O)N[C@@H](CC(C)C)C(=O)N[C@H](C(=O)N[C@@H](CCC(N)=O)C(=O)N[C@H](C(=O)N[C@@H](CCCCN)C(=O)N[C@H](C(=O)N[C@H](C(=O)N[C@@H](CC(=O)O)C(=O)O)[C@@H](C)O)[C@@H](C)CC)[C@@H](C)O)[C@@H](C)CC [teduglutide]
0.05 mg/kg/day, DW4
  CREATININE (RATE BLANKED) Change from Baseline, Mean (SD): 1.2 (12.01)
  CREATININE (RATE BLANKED) Change from Baseline, Median: 1.5
  CREATININE (RATE BLANKED), Mean (SD): 84.8 (30.01)
  GFR Change from Baseline, Mean (SD): −1.4 (12.80)
  GFR Change from Baseline, Median: −0.6
  GFR, Mean (SD): 86.1 (36.99)
  GFR, Median: 77.0
  UREA NITROGEN Change from Baseline, Mean (SD): −0.4 (2.16)
  UREA NITROGEN Change from Baseline, Median: −0.4
  UREA NITROGEN, Mean (SD): 5.3 (2.09)
  UREA NITROGEN, Median: 4.9
  CREATININE (RATE BLANKED), Median: 80 µmol/L
0.05 mg/kg/day, DW8
  CREATININE (RATE BLANKED) Change from Baseline, Mean (SD): −1.1 (15.51)
  CREATININE (RATE BLANKED) Change from Baseline, Median: 0.0
  CREATININE (RATE BLANKED), Mean (SD): 81.9 (27.34)
  GFR Change from Baseline, Mean (SD): −0.1 (19.13)
  GFR Change from Baseline, Median: 1.1
  GFR, Mean (SD): 89.1 (39.16)
  GFR, Median: 81.6
  UREA NITROGEN Change from Baseline, Mean (SD): −0.4 (2.02)
  UREA NITROGEN Change from Baseline, Median: −0.3
  UREA NITROGEN, Mean (SD): 5.3 (1.58)
  UREA NITROGEN, Median: 5.2
  CREATININE (RATE BLANKED), Median: 71 µmol/L
0.05 mg/kg/day, DW12
  CREATININE (RATE BLANKED) Change from Baseline, Mean (SD): 1.8 (16.71)
  CREATININE (RATE BLANKED) Change from Baseline, Median: 8.0
  CREATININE (RATE BLANKED), Mean (SD): 86.8 (29.41)
  GFR Change from Baseline, Mean (SD): −3.1 (12.18)
  GFR Change from Baseline, Median: −5.0
  GFR, Mean (SD): 85.7 (39.48)
  GFR, Median: 76.5
  UREA NITROGEN Change from Baseline, Mean (SD): −0.8 (1.86)
  UREA NITROGEN Change from Baseline, Median: −0.5
  UREA NITROGEN, Mean (SD): 4.8 (1.69)
  UREA NITROGEN, Median: 4.4
  CREATININE (RATE BLANKED), Median: 80 µmol/L
0.05 mg/kg/day, DW16
  CREATININE (RATE BLANKED) Change from Baseline, Mean (SD): −1.6 (13.06)
  CREATININE (RATE BLANKED) Change from Baseline, Median: 0.0
  CREATININE (RATE BLANKED), Mean (SD): 82.1 (29.95)
  GFR Change from Baseline, Mean (SD): 0.8 (12.08)
  GFR Change from Baseline, Median: 0.9
  GFR, Mean (SD): 89.8 (38.02)
  GFR, Median: 84.1
  UREA NITROGEN Change from Baseline, Mean (SD): −0.5 (2.13)
  UREA NITROGEN Change from Baseline, Median: −0.3
  UREA NITROGEN, Mean (SD): 5.0 (1.73)
  UREA NITROGEN, Median: 4.4
  CREATININE (RATE BLANKED), Median: 79 µmol/L
0.05 mg/kg/day, DW20
  CREATININE (RATE BLANKED) Change from Baseline, Mean (SD): 0.7 (13.11)
  CREATININE (RATE BLANKED) Change from Baseline, Median: 0.0
  CREATININE (RATE BLANKED), Mean (SD): 85.6 (28.77)
  GFR Change from Baseline, Mean (SD): −2.0 (16.60)
  GFR Change from Baseline, Median: 0.9
  GFR, Mean (SD): 83.2 (32.77)
  GFR, Median: 74.0
  UREA NITROGEN Change from Baseline, Mean (SD): −0.6 (1.94)
  UREA NITROGEN Change from Baseline, Median: −0.3
  UREA NITROGEN, Mean (SD): 5.0 (1.80)
  UREA NITROGEN, Median: 5.2
  CREATININE (RATE BLANKED), Median: 77.5 µmol/L
0.05 mg/kg/day, DW24
  CREATININE (RATE BLANKED) Change from Baseline, Mean (SD): −2.9 (14.03)
  CREATININE (RATE BLANKED) Change from Baseline, Median: −0.5
  CREATININE (RATE BLANKED), Mean (SD): 82.8 (31.57)
  GFR Change from Baseline, Mean (SD): 3.7 (12.81)
  GFR Change from Baseline, Median: 1.7
  GFR, Mean (SD): 89.7 (41.28)
  GFR, Median: 78.1
  UREA NITROGEN Change from Baseline, Mean (SD): −0.6 (2.02)
  UREA NITROGEN Change from Baseline, Median: −0.7
  UREA NITROGEN, Mean (SD): 5.0 (1.88)
  UREA NITROGEN, Median: 4.9
  CREATININE (RATE BLANKED), Median: 80 µmol/L
0.10 mg/kg/day, DW4
  CREATININE (RATE BLANKED) Change from Baseline, Mean (SD): −1.8 (10.49)
  CREATININE (RATE BLANKED) Change from Baseline, Median: −0.5
  CREATININE (RATE BLANKED), Mean (SD): 81.0 (21.62)
  GFR Change from Baseline, Mean (SD): 3.6 (11.81)
  GFR Change from Baseline, Median: 3.1
  GFR, Mean (SD): 80.3 (25.98)
  GFR, Median: 75.6
  UREA NITROGEN Change from Baseline, Mean (SD): 0.3 (1.22)
  UREA NITROGEN Change from Baseline, Median: 0.2
  UREA NITROGEN, Mean (SD): 6.4 (2.19)
  UREA NITROGEN, Median: 6.3
  CREATININE (RATE BLANKED), Median: 83 µmol/L
0.10 mg/kg/day, DW8
  CREATININE (RATE BLANKED) Change from Baseline, Mean (SD): 1.2 (10.40)
  CREATININE (RATE BLANKED) Change from Baseline, Median: 0.0
  CREATININE (RATE BLANKED), Mean (SD): 84.2 (21.41)
  GFR Change from Baseline, Mean (SD): 0.6 (10.87)
  GFR Change from Baseline, Median: 0.2
  GFR, Mean (SD): 77.9 (25.63)
  GFR, Median: 76.9
  UREA NITROGEN Change from Baseline, Mean (SD): 0.2 (1.20)
  UREA NITROGEN Change from Baseline, Median: 0.1
  UREA NITROGEN, Mean (SD): 6.4 (2.00)
  UREA NITROGEN, Median: 6.4
  CREATININE (RATE BLANKED), Median: 86 µmol/L
0.10 mg/kg/day, DW12
  CREATININE (RATE BLANKED) Change from Baseline, Mean (SD): 2.8 (12.77)
  CREATININE (RATE BLANKED) Change from Baseline, Median: 6.5
  CREATININE (RATE BLANKED), Mean (SD): 86.4 (25.37)
  GFR Change from Baseline, Mean (SD): 0.2 (15.54)
  GFR Change from Baseline, Median: −0.5
  GFR, Mean (SD): 77.3 (25.57)
  GFR, Median: 68.7
  UREA NITROGEN Change from Baseline, Mean (SD): 0.1 (1.47)
  UREA NITROGEN Change from Baseline, Median: 0.0
  UREA NITROGEN, Mean (SD): 6.3 (2.08)
  UREA NITROGEN, Median: 5.9
  CREATININE (RATE BLANKED), Median: 84.5 µmol/L
0.10 mg/kg/day, DW16
  CREATININE (RATE BLANKED) Change from Baseline, Mean (SD): 0.6 (11.86)
  CREATININE (RATE BLANKED) Change from Baseline, Median: 0.0
  CREATININE (RATE BLANKED), Mean (SD): 84.2 (21.85)
  GFR Change from Baseline, Mean (SD): 1.1 (13.73)
  GFR Change from Baseline, Median: 1.1
  GFR, Mean (SD): 78.3 (23.12)
  GFR, Median: 77.5
  UREA NITROGEN Change from Baseline, Mean (SD): −0.2 (1.47)
  UREA NITROGEN Change from Baseline, Median: 0.0
  UREA NITROGEN, Mean (SD): 6.0 (1.86)
  UREA NITROGEN, Median: 6.1
  CREATININE (RATE BLANKED), Median: 87.5 µmol/L
0.10 mg/kg/day, DW20
  CREATININE (RATE BLANKED) Change from Baseline, Mean (SD): 2.6 (12.05)
  CREATININE (RATE BLANKED) Change from Baseline, Median: 0.0
  CREATININE (RATE BLANKED), Mean (SD): 86.6 (20.44)
  GFR Change from Baseline, Mean (SD): −0.6 (16.16)
  GFR Change from Baseline, Median: 1.5
  GFR, Mean (SD): 77.3 (26.45)
